Columns and labels:
Conditions in all cases: incubation time: 72 h
[1] = tested on: HCC1599; assay: normalised response (% of control), CellTiter-Glo; higher = more viable cells (100 = DMSO, 0 = benzethonium chloride kill control)
Procedure: (§1)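 DSRT, 72 h incubation, CellTox Green / CellTiter-Glo readout. Signal is normalised to DMSO and benzethonium chloride controls. Value is the normalised response at dose 3.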

[2] = tested on: HCC1143; assay: as above
Procedure: as §1

[3] = tested on: MDA-MB-231; assay: as above
Procedure: as §1

[4] = tested on: HCC1937; assay: as above
Procedure: as §1

[5] = tested on: MDA-MB-453; assay: as above
Procedure: as §1

[6] = tested on: CAL-85-1; assay: as above
Procedure: as §1

[7] = tested on: MDA-MB-436; assay: as above
Procedure: as §1

[8] = tested on: HDQ-P1; assay: as above
Procedure: as §1

[9] = tested on: CAL-51; assay: as above
Procedure: as §1

[10] = tested on: BT-549; assay: as above
Procedure: as §1

[11] = tested on: DU-4475; assay: as above
Procedure: as §1

[12] = tested on: SK-BR-3; assay: as above
Procedure: as §1

[13] = tested on: MCF-10A; assay: as above
Procedure: as §1

[14] = tested on: Hs578T; assay: as above
Procedure: as §1

[15] = tested on: BT-474; assay: as above
Procedure: as §1

[16] = tested on: CAL-120; assay: as above
Procedure: as §1

[17] = tested on: MFM-223; assay: as above
Procedure: as §1

[18] = tested on: CAL-148; assay: as above
Procedure: as §1

[19] = tested on: MDA-MB-468; assay: as above
Procedure: as §1

[20] = tested on: HCC1599; assay: normalised response (% of control), CellTox Green; higher = less cell death (100 = DMSO, 0 = benzethonium chloride kill control)
Method in brief: (§2)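 Every value is a normalised signal taken at one concentration of a dilution series. Compound was placed in 384-well plates at 5 concentrations in 10-fold steps over a compound-specific 10,000-fold range, and 20 µl of breast cancer cell suspension was seeded onto it. After 72 h, CellTox Green fluorescence (485/520 nm) was measured first and CellTiter-Glo luminescence second, following 10 min at room temperature. Each plate was scaled to 0.1 % DMSO (100) and a positive kill control (0).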

[21] = tested on: HCC1143; assay: as above
Method in brief: as §2

[22] = tested on: MDA-MB-231; assay: as above
Method in brief: as §2

[23] = tested on: HCC1937; assay: as above
Method in brief: as §2

[24] = tested on: MDA-MB-453; assay: as above
Method in brief: as §2

[25] = tested on: CAL-85-1; assay: as above
Method in brief: as §2

[26] = tested on: HDQ-P1; assay: as above
Method in brief: as §2

[27] = tested on: CAL-51; assay: as above
Method in brief: as §2

[28] = tested on: BT-549; assay: as above
Method in brief: as §2

[29] = tested on: DU-4475; assay: as above
Method in brief: as §2

[30] = tested on: MCF-10A; assay: as above
Method in brief: as §2

[31] = tested on: Hs578T; assay: as above
Method in brief: as §2

[32] = tested on: BT-474; assay: as above
Method in brief: as §2

[33] = tested on: CAL-120; assay: as above
Method in brief: as §2

[34] = tested on: MFM-223; assay: as above
Method in brief: as §2

[35] = tested on: CAL-148; assay: as above
Method in brief: as §2

[36] = tested on: MDA-MB-468; assay: as above
Method in brief: as §2

[37] = tested on: MDA-MB-436; assay: as above
Method in brief: as §2

SMILES | normalised response [1] [%] | normalised response [2] [%] | normalised response [3] [%] | normalised response [4] [%] | normalised response [5] [%] | normalised response [6] [%] | normalised response [7] [%] | normalised response [8] [%] | normalised response [9] [%] | normalised response [10] [%] | normalised response [11] [%] | normalised response [12] [%] | normalised response [13] [%] | normalised response [14] [%] | normalised response [15] [%] | normalised response [16] [%] | normalised response [17] [%] | normalised response [18] [%] | normalised response [19] [%] | normalised response [20] [%] | normalised response [21] [%] | normalised response [22] [%] | normalised response [23] [%] | normalised response [24] [%] | normalised response [25] [%] | normalised response [26] [%] | normalised response [27] [%] | normalised response [28] [%] | normalised response [29] [%] | normalised response [30] [%] | normalised response [31] [%] | normalised response [32] [%] | normalised response [33] [%] | normalised response [34] [%] | normalised response [35] [%] | normalised response [36] [%] | normalised response [37] [%]
O=C(O)CCCCC(CCSCc1ccccc1)SCc1ccccc1 (stereo not drawn) [CPI-613] (100 nM) | 114 | 106 | 107 | 101 | 104 | 96.4 | 101 | 99 | 61.4 | 105 | 101 | 104 | 107 | 99.6 | 106 | 98.9 | 106 | 108 | 102 | 95.4 | 73.1 | 51.4 | 103 | 101 | 104 | 107 | 75.1 | 96.5 | 101 | 104 | 105 | 93.3 | 102 | 64.3 | 104 | 122 | 
Nc1ccccc1NC(=O)c1ccc(CNC(=O)OCc2cccnc2)cc1 [Entinostat] (100 nM) | 96.9 | 103 | 98.6 | 94 | 103 | 112 | 102 | 104 | 76.1 | 115 | 105 | 107 | 108 | 102 | 94.8 | 98.2 | 104 | 104 | 96.8 | 96.6 | 67.2 | 103 | 101 | 101 | 103 | 107 | 101 | 110 | 100 |  | 109 | 100 | 97.4 | 99.3 | 104 | 105 | 80.2
CC[C@H](Nc1ncnc2[nH]cnc12)c1nc2cccc(F)c2c(=O)n1-c1ccccc1 [GS-1101] (100 nM) | 93 | 98.5 | 92 | 90.8 | 84.8 | 90.4 | 90 | 93.1 | 93.3 | 95.1 | 102 | 85.2 | 84.1 | 96.8 | 92.7 | 94.6 | 91.9 | 96.1 | 86.8 | 94 | 107 | 84.8 | 87.8 | 100 | 93.9 | 105 | 93.3 | 105 | 97.6 |  | 94 | 93 | 102 | 78 | 102 | 103 | 80.1
N#Cc1ccc(C(c2ccc(C#N)cc2)n2cncn2)cc1 [Letrozole] (100 nM) | 95.9 | 104 | 101 | 94.2 | 101 | 103 | 105 | 96.7 | 104 | 104 | 102 | 102 | 103 | 105 | 95.5 | 99.8 | 106 | 97.2 | 94.5 | 102 | 108 | 79 | 83.5 | 100 | 114 | 53.6 | 103 | 96.3 | 101 | 105 | 75.3 | 93.5 | 91.1 | 94.5 | 87.3 |  | 
Nc1nc2[nH]cc(CCc3ccc(C(=O)N[C@@H](CCC(=O)O)C(=O)O)cc3)c2c(=O)[nH]1 [Pemetrexed] (100 nM) | 72.1 | 103 | 96.8 | 75.7 | 98.1 | 61 | 80.9 | 92.3 | 66.6 | 104 | 95 | 63.2 | 92.8 | 28.8 | 88.6 | 105 | 95.2 | 93.2 | 80.4 | 91.2 |  | 87.1 | 88.5 | 104 | 103 | 102 | 88.1 | 96.6 | 97.7 | 103 | 103 | 96.2 | 98 | 90.4 | 99.7 | 93 | 58.9
Cc1cnc(NC(=O)Nc2cc(Br)c(C)cc2OC[C@@H]2CNCCO2)cn1 [Rabusertib] (10 nM) | 106 | 104 | 109 | 99.7 | 118 | 102 | 115 | 96.3 | 91.9 | 98.4 | 104 | 110 | 107 | 107 | 97.6 | 109 | 104 | 112 | 108 | 110 |  | 122 | 119 | 106 | 95.2 | 94.3 | 106 | 95.7 | 106 | 103 | 108 | 102 | 102 | 109 | 98.4 | 89.4 | 107
CC(=O)Nc1cccc(-n2c(=O)n(C3CC3)c(=O)c3c(Nc4ccc(I)cc4F)n(C)c(=O)c(C)c32)c1 [Trametinib] (2.5 nM) | 99.2 | 89.3 | 86.5 | 86.8 | 109 | 97.4 | 96.1 | 70.1 | 112 | 100 | 24.3 | 98.4 | 47.4 | 90.8 | 94 | 101 | 106 | 99.1 | 93.3 | 117 | 112 |  | 117 | 103 | 86.5 | 98.6 | 117 | 94.2 | 82.8 | 80.7 | 89.9 | 100 | 96.3 | 72.4 | 102 | 120 | 101
CCCCC(=O)OCC(=O)[C@]1(O)Cc2c(O)c3c(c(O)c2[C@@H](O[C@H]2C[C@H](NC(=O)C(F)(F)F)[C@H](O)[C@H](C)O2)C1)C(=O)c1c(OC)cccc1C3=O [Valrubicin] (50 nM) | 91.7 | 104 | 97.4 | 97.9 | 118 | 98.8 | 92.2 | 102 | 72.7 | 86.2 | 84 | 94.8 | 101 | 101 | 98.2 | 98.4 | 101 | 97 | 92.9 | 115 | 111 | 122 |  | 108 | 118 | 107 | 76.7 | 121 | 109 | 106 | 114 | 103 | 111 | 108 | 76.3 | 152 | 101
CCCS(=O)(=O)Nc1ccc(F)c(C(=O)c2c[nH]c3ncc(-c4ccc(Cl)cc4)cc23)c1F [Vemurafenib] (100 nM) | 95.5 | 94.7 | 93.4 | 97.7 | 79.3 | 91.8 | 95.9 | 94.3 | 88.6 | 97.9 | 86.5 | 84.8 | 96.8 | 95.9 | 96.9 | 93.3 | 89.4 | 93.9 | 91.7 | 94 | 82.2 |  | 92.1 | 97.9 | 102 | 108 | 76.9 | 94.2 | 96.1 | 91.9 | 103 | 98.3 | 97.7 | 94.2 | 97.3 | 98.4 | 72.4
